ChEMBL document CHEMBL3616371, “Synthesis of BF₃ catalyzed Mannich derivatives with excellent ee from phenylpropanolamine, study of their antimicrobial activity and molecular docking” (2015)

What was measured:
Klebsiella pneumoniae [1] = assay: Antibacterial activity against Klebsiella pneumoniae after 24 hrs by two fold serial dilution method; type: functional
Shigella flexneri [2] = assay: Antibacterial activity against Shigella flexneri assessed as growth inhibition at 1 mg/well after 24 hrs by Well method; type: functional
Proteus vulgaris [3] = assay: Antibacterial activity against Proteus vulgaris assessed as growth inhibition at 1 mg/well after 24 hrs by Well method; type: functional
Staphylococcus aureus [4] = assay: Antibacterial activity against methicillin-resistant Staphylococcus aureus assessed as growth inhibition at 1 mg/well after 24 hrs by Well method; type: functional
[5] = tested on: Salmonella enterica subsp. enterica serovar Paratyphi B; assay: Antibacterial activity against Salmonella paratyphi B assessed as growth inhibition at 1 mg/well after 24 hrs by Well method; type: functional
Salmonella typhimurium [6] = assay: Antibacterial activity against Salmonella typhimurium after 24 hrs by two fold serial dilution method; type: functional, Salmonella enterica subsp. enterica serovar Typhimurium; conditions: Salmonella enterica
[7] = tested on: Salmonella enterica subsp. enterica serovar Paratyphi B; assay: Antibacterial activity against Salmonella paratyphi B after 24 hrs by two fold serial dilution method; type: functional
Salmonella typhimurium [8] = assay: Antibacterial activity against Salmonella typhimurium assessed as growth inhibition at 1 mg/well after 24 hrs by Well method; type: functional, Salmonella enterica subsp. enterica serovar Typhimurium
Pseudomonas aeruginosa [9] = assay: Antibacterial activity against Pseudomonas aeruginosa after 24 hrs by two fold serial dilution method; type: functional
Klebsiella aerogenes [10] = assay: Antibacterial activity against Enterobacter aerogenes assessed as growth inhibition at 1 mg/well after 24 hrs by Well method; type: functional
[11] = tested on: Staphylococcus epidermidis; assay: Antibacterial activity against Staphylococcus epidermidis after 24 hrs by two fold serial dilution method; type: functional
Bacillus subtilis [12] = assay: Antibacterial activity against Bacillus subtilis assessed as growth inhibition at 1 mg/well after 24 hrs by Well method; type: functional
Bacillus subtilis [13] = assay: Antibacterial activity against Bacillus subtilis after 24 hrs by two fold serial dilution method; type: functional
Staphylococcus aureus [14] = assay: Antibacterial activity against Staphylococcus aureus assessed as growth inhibition at 1 mg/well after 24 hrs by Well method; type: functional
Micrococcus luteus [15] = assay: Antibacterial activity against Micrococcus luteus after 24 hrs by two fold serial dilution method; type: functional
Shigella flexneri [16] = assay: Antibacterial activity against Shigella flexneri after 24 hrs by two fold serial dilution method; type: functional
Micrococcus luteus [17] = assay: Antibacterial activity against Micrococcus luteus assessed as growth inhibition at 1 mg/well after 24 hrs by Well method; type: functional
Staphylococcus aureus [18] = assay: Antibacterial activity against methicillin-resistant Staphylococcus aureus after 24 hrs by two fold serial dilution method; type: functional
Aspergillus flavus [19] = assay: Antifungal activity against Aspergillus flavus after 48 to 72 hrs by two fold serial dilution method; type: functional
Klebsiella pneumoniae [20] = assay: Antibacterial activity against Klebsiella pneumoniae assessed as growth inhibition at 1 mg/well after 24 hrs by Well method; type: functional
Proteus vulgaris [21] = assay: Antibacterial activity against Proteus vulgaris after 24 hrs by two fold serial dilution method; type: functional
Aspergillus flavus [22] = assay: Antifungal activity against Aspergillus flavus assessed as growth inhibition at 1 mg/well after 48 hrs by Well method; type: functional
[23] = tested on: Staphylococcus epidermidis; assay: Antibacterial activity against Staphylococcus epidermidis assessed as growth inhibition at 1 mg/well after 24 hrs by Well method; type: functional
Pseudomonas aeruginosa [24] = assay: Antibacterial activity against Pseudomonas aeruginosa assessed as growth inhibition at 1 mg/well after 24 hrs by Well method; type: functional
Staphylococcus aureus [25] = assay: Antibacterial activity against Staphylococcus aureus after 24 hrs by two fold serial dilution method; type: functional
Klebsiella aerogenes [26] = assay: Antibacterial activity against Enterobacter aerogenes after 24 hrs by two fold serial dilution method; type: functional
Malassezia pachydermatis [27] = assay: Antifungal activity against Malassezia pachydermatis assessed as growth inhibition at 1 mg/well after 48 hrs by Well method; type: functional
Candida albicans [28] = assay: Antifungal activity against Candida albicans assessed as growth inhibition at 1 mg/well after 48 hrs by Well method; type: functional
Malassezia pachydermatis [29] = assay: Antifungal activity against Malassezia pachydermatis after 48 to 72 hrs by two fold serial dilution method; type: functional
Candida albicans [30] = assay: Antifungal activity against Candida albicans after 48 to 72 hrs by two fold serial dilution method; type: functional

Row | Structure (SMILES) | inhibition zone (IZ) (Shigella flexneri [2]) [mm] | inhibition zone (IZ) (Proteus vulgaris [3]) [mm] | inhibition zone (IZ) (Staphylococcus aureus [4]) [mm] | inhibition zone (IZ) [5] [mm] | MIC (Salmonella typhimurium [6]) [µg/mL] | MIC [7] [µg/mL] | inhibition zone (IZ) (Salmonella typhimurium [8]) [mm] | MIC (Pseudomonas aeruginosa [9]) [µg/mL] | inhibition zone (IZ) (Klebsiella aerogenes [10]) [mm] | MIC [11] [µg/mL] | inhibition zone (IZ) (Bacillus subtilis [12]) [mm] | MIC (Bacillus subtilis [13]) [µg/mL] | inhibition zone (IZ) (Staphylococcus aureus [14]) [mm] | MIC (Micrococcus luteus [15]) [µg/mL] | MIC (Shigella flexneri [16]) [µg/mL] | inhibition zone (IZ) (Micrococcus luteus [17]) [mm] | MIC (Staphylococcus aureus [18]) [µg/mL] | MIC (Proteus vulgaris [21]) [µg/mL] | inhibition zone (IZ) [23] [mm] | inhibition zone (IZ) (Pseudomonas aeruginosa [24]) [mm] | other results
1 | COc1ccc(C(=O)CCN[C@@H](C)[C@H](O)c2ccccc2)cc1.Cl | 21 | 21 | 20 | 20 | 50 | 50 | 17 | 25 | 20 | 25 | 19 | 25 | 18 | 25 | 50 | 23 | 50 | 50 | 22 | 20 | MIC (Klebsiella pneumoniae [1]): > 50 µg/mL; MIC (Aspergillus flavus [19]): > 50 µg/mL; inhibition zone (IZ) (Klebsiella pneumoniae [20]): 12 mm; inhibition zone (IZ) (Aspergillus flavus [22]): 10 mm; MIC (Staphylococcus aureus [25]): 50 µg/mL; MIC (Klebsiella aerogenes [26]): 50 µg/mL
2 | C[C@H](NCCC(=O)c1cccc([N+](=O)[O-])c1)[C@H](O)c1ccccc1.Cl | 16 | 18 | 15 | 12 | 50 | > 50 | 17 | 50 | 16 | 50 | 15 | 50 | 15 | 50 | 50 | 19 | 50 | 50 | 19 | 16 | inhibition zone (IZ) (Malassezia pachydermatis [27]): 13 mm; inhibition zone (IZ) (Candida albicans [28]): 12 mm; MIC (Malassezia pachydermatis [29]): > 50 µg/mL; MIC (Candida albicans [30]): > 50 µg/mL; MIC (Staphylococcus aureus [25]): 50 µg/mL; MIC (Klebsiella aerogenes [26]): 50 µg/mL
